Marks after values point to notes of the source that are not given here. Each block holds one compound with its values, some of them ahead of it.
How the values were obtained:
Na^+/Ca^2+ exchanger = target: T1, Na^+/Ca^2+ exchanger (Cavia porcellus, UniProt P48766); assay: Na^+/Ca^2+ exchange current (INa—Ca), whole-cell patch clamp, intracellular Na^+ overload cell model; assay type: cell-based, guinea pig; design: Inhibitory rate of outward INa—Ca (%) / Inhibitory rate of inward INa—Ca (%): concentration or dose not given beside the values; settings: for inhibitory ratio on INa—Ca at −80 mV: inward current; for inhibitory ratio on INa—Ca at +50 mV: outward current; for effective concentration (significant inhibitory effect on reverse mode Na^+/Ca^2+ exchange): intracellular Na^+ overload; for selectivity of inhibition of outward versus inward INa—Ca: biphasic ion conditioning
T1 construct: endogenous in cells; host or cells: freshly isolated guinea pig ventricular myocytes
Description: 1. Establishment of Assaying Method for Biphasical Current Detection in Na^+/Ca^2+ Exchange System
Since the reverse mode of Na^+/Ca^2+ exchange process is one of the main mechanisms involving in ischemia/reperfusion insult, it is of great importance to establish cell model represented reverse mode Na^+/Ca^2+ exchange process for the development of drugs against ischemic injury. Therefore, we successfully established cell model of reverse mode Na^+/Ca^2+ exchange system by intracellular Na^+ dialysis technique, and recorded Na^+/Ca^2+ exchange currents by patch clamp experiment.
Internal solution contained certain concentration of NaCl was filled to the microcatheter, and ion exchange process between the cellular and internal solutions was conducted after whole cell currents were recorded by patch clamp. Na^+ contained in the internal solution was dialyzed into the cell; result in the high intracellular Na^+ concentration. After that, the cell was champed at a holding potential of −40 mV, then depolarized to +60 mV and followed by a conversely declining ramp stimuli at a speed of 80 mV·s^−1 and 2 s conditioning pulse, then repolarized to −100 mV with a frequency of 0.05 Hz. Under the stimulation protocol, current from outward to the inward direction was recorded by perfusing modified biphasical Tyrode solution (in which the outward and inward currents can be recorded simultaneously) with the addition of 1 mmol·L^−1 of BaCl2 and 2 mmol·L^−1 of CsCl to block K^+ channels, 1 μmol·L^−1 of verapamil to block L-type Ca^2+ channels, and 20 μmol·L^−1 of ouabain to block Na^+/K^+ ATPase, and 20 mmol·L^−1 of TEA to block potassium channels. The recorded inward currents were presented in a linear manner owing to the blockade of other time-dependent currents. With the increase of intracellular Na^+ level and prolongation of time, the reverse mode of Na^+/Ca^2+ exchange process was activated. […] Under such experimental conditioning, the maximum reverse mode current was recorded 3 min after cell crushed. No significant “run-down” was observed within the record period of 8 minutes. The inward and outward current were inhibited by 5 mmol·L^−1 of Ni^2+ treatment, and the experiment result in two current-voltage curves in the absence or presence of Ni^2+. The Ni^2+ sensitive current, also called electrophysiological Na^+/Ca^2+ exchange current (INa·Ca), was the minus result of two current-voltage curves. The reverse mode potential of INa—Ca was about −20 mV
Male guinea pigs weighting 250˜280 g provided by the Animal Center of the Chinese Academy of Medical Sciences were hammered and sacrificed. The chest was opened and the heart was removed quickly. Fatty tissue and pericardium were removed in a Ca^2+-free solution at 4° C., and heart was sequentially mounted on a Langendorff apparatus. First, the heart was perfused conversely via the aorta for 6 min with Ca^2+-free solution in order to wash out residual blood, then the heart expands and the color of it turns to pink. Then the heart was perfused with Ca^2+-free solution containing 0.1 mg/ml of pronase E, 0.5 mg/ml defatted bovine serum albumin (BSA) and 150 μM Ca^2+ for 2˜3 min, until the heart expanded and became soft. The atrium was removed, and the digested heart was minced with scissors, stirred in a beaker at 37° C. for 5˜10 min. The supernatant was diluted with Ca^2+-free solution containing 0.5 mg/ml BSA and 1.8 mM Ca^2+. The supernatant was placed at room temperature (20˜24° C.) for 1 hr and then subjected to the experiment. During the whole perfusion period, pressure was kept at 70 cmH2O and the temperature of solution was kept at 37° C. with continuously gassed with 95% O2 and 5% CO2.
Rod-shaped cells with clear striations and intact membrane were used. […]

[1] = test system: arrhythmia caused by ischemia/reperfusion insults in anaesthetic rats; assay: Ischemia/reperfusion arrhythmia in anaesthetic rats, intravenous injection; assay type: in vivo, rat; settings: rats
Description: (1) Protective Effects of the Tested Compounds on Myocardial Insults in Rats after Intravenously Injection
Arrhythmic potency induced by myocardial insults was used to assess the potential protective effect of the compounds.

[2] = test system: isolated rat hearts subjected to ischemia-reperfusion (I/R); assay: Isolated heart subjected to ischemia/reperfusion injury (arrhythmia); settings: 10^−6 M; isolated heart ischemia/reperfusion
Procedure: Based on the pre-electrophysiological cell model screening, we have compared the inhibition ratios of the outward current by reverse-transportation of Na^+/Ca^2+ exchange, and further in vitro tests on isolated rat hearts subjected to ischemia-reperfusion (I/R) were conducted. Prolongation of ventricular arrhythmic, incidence rate of ventricular extrasystole, ventricular tachycardia/ventricular fibrillation (VT/VF) were recorded to evaluate the protective actions of drugs on myocardial injury.
On the basis of above screening results obtained from electrophysiological studies, and the result from comparative study on the research of the inhibitory effect of compounds on reverse mode Na^+/Ca^2+ exchange process, 7 effective compounds were subjected to in vitro study. Among which, IMM-313, IMM-004 and IMM-132 have structures containing chlorine; IMM-127, IMM-128 and IMM-129 have structures containing fluorine; and IMM-065 has a structure containing OH. The experiment performed in the isolated heart subjected to ischemia/reprefusion insult. Prolongation of ventricular arrhythmic, incidence of ventricular extrasystole, ventricular tachycardia/ventricular fibrillation (VT/VF) were recorded in order to evaluate the protective actions of drugs on myocardial injury.

[3] = screening of 22 candidate compounds
[4] = Example 1 table, myocardial cell
[5] = 0.3 mg/Kg intravenous (femoral vein)

inhibitory ratio on INa—Ca at −80 mV (Na^+/Ca^2+ exchanger; 10 μM): 6%
inhibitory ratio on INa—Ca at +50 mV (Na^+/Ca^2+ exchanger; 10 μM): 15%
inhibitory ratio on INa—Ca at −80 mV (Na^+/Ca^2+ exchanger; 30 μM): 15%
inhibitory ratio on INa—Ca at +50 mV (Na^+/Ca^2+ exchanger; 30 μM): 23%
inhibitory ratio on INa—Ca at −80 mV (Na^+/Ca^2+ exchanger; 100 μM): 23%
inhibitory ratio on INa—Ca at +50 mV (Na^+/Ca^2+ exchanger; 100 μM): 41%
effective concentration (significant inhibitory effect on reverse mode Na^+/Ca^2+ exchange) (Na^+/Ca^2+ exchanger): above 10^−5 mol·L^−1
SMILES: N=C(N)NC(=O)c1nc(Cl)c(N)nc1N [Amiloride, reference compound]

SMILES: O=c1c2ccccc2[se]n1-c1ccncc1 [IMM-001, 2-(4-pyridyl)-1,2-benzisoselenazol-3(2H)-one]
incidence and duration of VT, VF, VE / ventricular arrhythmic ([1]; 3 mg/Kg intravenous (femoral vein)): all reduced
inhibitory ratio on INa—Ca at −80 mV (Na^+/Ca^2+ exchanger; 0.1 μM): 15%
inhibitory ratio on INa—Ca at +50 mV (Na^+/Ca^2+ exchanger; 0.1 μM): 28%
inhibitory ratio on INa—Ca at −80 mV (Na^+/Ca^2+ exchanger; 1 μM): 24%
inhibitory ratio on INa—Ca at +50 mV (Na^+/Ca^2+ exchanger; 1 μM): 48%
inhibitory ratio on INa—Ca at −80 mV (Na^+/Ca^2+ exchanger; 10 μM): 42%
inhibitory ratio on INa—Ca at +50 mV (Na^+/Ca^2+ exchanger; 10 μM): 66%
selectivity of inhibition of outward versus inward INa—Ca (Na^+/Ca^2+ exchanger): high selectivity
effective concentration (significant inhibitory effect on reverse mode Na^+/Ca^2+ exchange) (Na^+/Ca^2+ exchanger): 10^−7 to 10^−5 mol·L^−1

SMILES: O=c1c2ccccc2[se]n1/C=C/C1N=CCN1 (stereo not drawn) [IMM-002, 2-[(3,4-dihydroimidazol-2-yl)-2-ethenyl]-1,2-benz-isoselenazol-3(2H)-one]
Inhibitory rate of inward INa—Ca (%) (Na^+/Ca^2+ exchanger; [3]): 34%
Inhibitory rate of outward INa—Ca (%) (Na^+/Ca^2+ exchanger; [3]): 32* %

SMILES: O=c1c2ccccc2[se]n1-c1cccc2cccnc12 [IMM-003, 2-(8-quinolinyl)-1,2-benz-isoselenazol-3(2H)-one]
Inhibitory rate of outward INa—Ca (%) (Na^+/Ca^2+ exchanger; [3]): 22%

SMILES: O=c1c2ccccc2[se]n1-c1cccnc1 [IMM-030, 2-(3-pyridyl)-1,2-benzisoselenazol-3(2H)-one]
Inhibitory rate of inward INa—Ca (%) (Na^+/Ca^2+ exchanger; [3]): 17%
Inhibitory rate of outward INa—Ca (%) (Na^+/Ca^2+ exchanger; [3]): 12%

SMILES: O=c1c2ccccc2[se]n1Cc1ccccn1 [IMM-058, 2-(2-pyridylmethyl)-1,2-benz-isoselenazol-3(2H)-one]
Inhibitory rate of outward INa—Ca (%) (Na^+/Ca^2+ exchanger; [3]): 3%

SMILES: O=c1c2ccccc2[se]n1Cc1ccco1 [IMM-059, 2-(2-furanylmethyl)-1,2-benz-isoselenazol-3(2H)-one]
Inhibitory rate of inward INa—Ca (%) (Na^+/Ca^2+ exchanger; [3]): 15%
Inhibitory rate of outward INa—Ca (%) (Na^+/Ca^2+ exchanger; [3]): 8%

SMILES: O=c1c2cc(Cl)ccc2[se]n1-c1cccnc1 [IMM-125, 5-chloro-2-(3-pyridyl)-1,2-benz-isoselenazol-3(2H)-one]
Inhibitory rate of inward INa—Ca (%) (Na^+/Ca^2+ exchanger; [3]): 14%
Inhibitory rate of outward INa—Ca (%) (Na^+/Ca^2+ exchanger; [3]): 35%

SMILES: O=c1c2cc(F)ccc2[se]n1-c1ccncc1 [IMM-129, 5-fluoro-2-(4-pyridyl)-1,2-benz-isoselenazol-3(2H)-one]
AAT: arrhythmic occurrence time, Time [2]: 23.67 ± 3.87 min
VF (ventricular fibrillation) Incidence rate (%) [2]: 63%
VPS (ventricular premature beats) Incidence rate (%) [2]: 37.5%
VT (ventricular tachycardia) Incidence rate (%) [2]: 75%
Inhibitory rate of inward INa—Ca (%) (Na^+/Ca^2+ exchanger; [4]): 57%
Inhibitory rate of outward INa—Ca (%) (Na^+/Ca^2+ exchanger; [4]): 59%
Inhibitory rate of inward INa—Ca (%) (Na^+/Ca^2+ exchanger; [3]): 57* %
Inhibitory rate of outward INa—Ca (%) (Na^+/Ca^2+ exchanger; [3]): 59* %

SMILES: O=c1c2cc(F)ccc2[se]n1-c1ccccc1 [IMM-130, 5-fluoro-2-phenyl-1,2-benz-isoselenazol-3(2H)-one]
Inhibitory rate of inward INa—Ca (%) (Na^+/Ca^2+ exchanger; [3]): 43%
Inhibitory rate of outward INa—Ca (%) (Na^+/Ca^2+ exchanger; [3]): 30%

SMILES: O=c1c2cc(Cl)ccc2[se]n1-c1ccccc1 [IMM-131, 5-chloro-2-phenyl-1,2-benz-isoselenazol-3(2H)-one]
Inhibitory rate of inward INa—Ca (%) (Na^+/Ca^2+ exchanger; [3]): 15%
Inhibitory rate of outward INa—Ca (%) (Na^+/Ca^2+ exchanger; [3]): 22%

SMILES: O=c1c2cc(Cl)ccc2[se]n1-c1ccncc1 [IMM-132, 5-chloro-2-(4-pyridyl)-1,2-benz-isoselenazol-3(2H)-one]
AAT: arrhythmic occurrence time, Time [2]: 29.13 ± 0.69 min
VF (ventricular fibrillation) Incidence rate (%) [2]: 85.7%
VPS (ventricular premature beats) Incidence rate (%) [2]: 28.6%
VT (ventricular tachycardia) Incidence rate (%) [2]: 85.7%
Inhibitory rate of inward INa—Ca (%) (Na^+/Ca^2+ exchanger; [4]): 14%
Inhibitory rate of outward INa—Ca (%) (Na^+/Ca^2+ exchanger; [4]): 44%
Inhibitory rate of inward INa—Ca (%) (Na^+/Ca^2+ exchanger; [3]): 14%
Inhibitory rate of outward INa—Ca (%) (Na^+/Ca^2+ exchanger; [3]): 44* %

SMILES: O=c1c2ccc(Cl)cc2[se]n1-c1cccnc1 [IMM-141, 6-chloro-2-(3-pyridyl)-1,2-benz-isoselenazol-3(2H)-one]
Inhibitory rate of inward INa—Ca (%) (Na^+/Ca^2+ exchanger; [3]): 2%

SMILES: O=c1c2ccc(Cl)cc2[se]n1-c1ccccn1 [IMM-142, 6-chloro-2-(2-pyridyl)-1,2-benz-isoselenazol-3(2H)-one]
Inhibitory rate of inward INa—Ca (%) (Na^+/Ca^2+ exchanger; [3]): 57%
Inhibitory rate of outward INa—Ca (%) (Na^+/Ca^2+ exchanger; [3]): 46%

SMILES: O=c1c2cc(O)ccc2[se]n1-c1ccccn1 [IMM-163, 5-hydroxy-2-(2pyridyl)-1,2-benz-isoselenazol-3(2H)-one]
Inhibitory rate of inward INa—Ca (%) (Na^+/Ca^2+ exchanger; [3]): 19%
Inhibitory rate of outward INa—Ca (%) (Na^+/Ca^2+ exchanger; [3]): 14%

SMILES: O=c1c2cc(O)ccc2[se]n1-c1ccccc1 [IMM-164, 5-hydroxy-2-phenyl-1,2-benz-isoselenazol-3(2H)-one]
Inhibitory rate of inward INa—Ca (%) (Na^+/Ca^2+ exchanger; [3]): 22%
Inhibitory rate of outward INa—Ca (%) (Na^+/Ca^2+ exchanger; [3]): 8%

SMILES: CCCCC1OC(=O)c2cccc(-n3[se]c4ccccc4c3=O)c21 (stereo not drawn) [IMM-623, 2-[4-(7-n-butyl-benzo(1,2-c-di-hydrofuran-2-one))]-1,2-benz-isoselenazol-3(2H)-one]
Inhibitory rate of inward INa—Ca (%) (Na^+/Ca^2+ exchanger; [3]): 15%
Inhibitory rate of outward INa—Ca (%) (Na^+/Ca^2+ exchanger; [3]): 11%

inhibitory ratio on INa—Ca at −80 mV (Na^+/Ca^2+ exchanger; 1 μM): 22%
inhibitory ratio on INa—Ca at +50 mV (Na^+/Ca^2+ exchanger; 1 μM): 29%
inhibitory ratio on INa—Ca at −80 mV (Na^+/Ca^2+ exchanger; 10 μM): 57%
inhibitory ratio on INa—Ca at +50 mV (Na^+/Ca^2+ exchanger; 10 μM): 61%
selectivity of inhibition of outward versus inward INa—Ca (Na^+/Ca^2+ exchanger): without selectivity
selectivity of inhibition of outward versus inward INa—Ca (Na^+/Ca^2+ exchanger; listed as KB-R794): poor selectivity
SMILES: N=C(N)SCCc1ccc(OCc2ccc([N+](=O)[O-])cc2)cc1 [KB-R7943, 2-[2-[4-(4-nitrobenzyloxy)phenyl]]isothiourea, reference compound]

SMILES: COc1ccc(CCN(C)CCCC(C#N)(c2ccc(OC)c(OC)c2)C(C)C)cc1OC (stereo not drawn) [Verapamil, reference compound]
incidence of VT, VF, VE and duration of arrhythmic [1, 5]: all reduced
latency of ventricular arrhythmic [1, 5]: significantly prolonged
